{"source": "patent US9669035B2", "about": "“Combinations comprising PDE 2 inhibitors such as 1-aryl-4-methyl-[1,2,4]triazolo-[4,3-A]]quinoxaline compounds and PDE 10 inhibitors for use in the treatment of neurological of metabolic disorders” (Janssen Pharmaceutica NV, priority 2012, dated 2017)", "key": {"PDE2 [1]": {"biological_target": "T1, PDE2 (Rattus norvegicus (Rat), UniProt Q01062)", "T1 sequence (Q01062 whole entry)": "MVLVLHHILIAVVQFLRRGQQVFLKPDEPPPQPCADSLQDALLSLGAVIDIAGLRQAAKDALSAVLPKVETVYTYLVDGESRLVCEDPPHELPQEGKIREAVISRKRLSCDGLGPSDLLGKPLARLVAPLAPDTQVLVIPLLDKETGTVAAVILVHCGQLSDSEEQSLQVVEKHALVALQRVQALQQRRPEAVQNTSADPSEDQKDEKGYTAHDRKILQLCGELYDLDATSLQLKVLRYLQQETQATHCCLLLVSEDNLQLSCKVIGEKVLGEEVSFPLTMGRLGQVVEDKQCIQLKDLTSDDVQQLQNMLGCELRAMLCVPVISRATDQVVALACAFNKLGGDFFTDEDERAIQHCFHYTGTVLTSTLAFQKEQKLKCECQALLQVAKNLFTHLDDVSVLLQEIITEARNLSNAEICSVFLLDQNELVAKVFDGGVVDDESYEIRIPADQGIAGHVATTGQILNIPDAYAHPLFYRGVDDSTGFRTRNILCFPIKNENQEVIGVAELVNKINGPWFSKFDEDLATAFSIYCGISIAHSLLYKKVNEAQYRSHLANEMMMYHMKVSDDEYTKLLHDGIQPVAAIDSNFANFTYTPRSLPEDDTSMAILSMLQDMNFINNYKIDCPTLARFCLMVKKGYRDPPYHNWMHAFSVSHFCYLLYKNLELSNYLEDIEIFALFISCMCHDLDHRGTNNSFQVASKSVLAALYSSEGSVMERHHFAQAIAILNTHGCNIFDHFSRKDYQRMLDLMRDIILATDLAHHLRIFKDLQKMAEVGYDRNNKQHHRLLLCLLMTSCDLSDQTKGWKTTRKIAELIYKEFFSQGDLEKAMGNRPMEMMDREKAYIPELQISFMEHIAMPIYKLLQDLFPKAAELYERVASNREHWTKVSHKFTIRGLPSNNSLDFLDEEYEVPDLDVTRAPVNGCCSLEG", "test": "Potentiation of in vivo [3H]B-1a binding to PDE2 by MP-10 (ex vivo autoradiography)"}, "[2]": {"system": "cGMP levels in the rat brain", "details": "for incr vs contr (pmol cGMP/ml) (measured): increase versus control"}, "[3]": {"system": "Apomorphine-induced agitation in rats", "test": "Apomorphine-induced agitation: MP-10 (s.c.) dose-response with co-administered B-1a (FIGS. 1-3)", "assay_type": "in vivo, rat"}, "[4]": {"system": "d-Amphetamine-induced hyperlocomotion in rats", "test": "d-Amphetamine-induced hyperlocomotion in rats: MP-10 or B-1a alone (FIGS. 6-8)", "assay_type": "in vivo, rat"}, "[5]": {"system": "d-Amphetamine-induced hyperlocomotion in rats", "test": "Inhibition of d-amphetamine-induced hyperlocomotion in rats in combination with Compound A and Compound B (FIGS. 9, 10)", "assay_type": "in vivo, rat", "details": "B-1a 0.63-5.0 mg/kg s.c., -1 h"}, "[6]": {"system": "Apomorphine-induced agitation in rats", "test": "Inhibition of apomorphine-induced agitation in rats in combination with Compound A and Compound B (FIGS. 4, 5)", "assay_type": "in vivo, rat", "details": "-1 h"}, "[7]": {"system": "Apomorphine-induced agitation in rats", "test": "Inhibition of apomorphine-induced agitation in rats (APO)", "details": "for Dose at max effect / Max effect (lowest median cumulative agitation score) / LAD (lowest active dose): SC; for Max effect (lowest median cumulative agitation score): at the dose at max effect; for LAD (lowest active dose): lowest dose at which >=67% tested animals respond"}, "[8]": {"system": "Apomorphine-induced agitation in rats", "test": "Inhibition of apomorphine-induced agitation in rats in combination with MP-10", "assay_type": "in vivo, rat", "details": "SC, MP-10 (0.63 mg/kg) + apomorphine (1.0 mg/kg) i.v.", "experimental": "Inhibition of Apomorphine-induced Agitation in Rats in combination with MP-10 but the animals were simultaneously challenged with MP-10 (0.63 mg/kg) in addition to apomorphine (1.0 mg/kg) via one injection (2 ml/kg, i.v.), at a fixed time interval (standard 1 h) after s.c. or p.o. dosing of test compound or solvent. Twelve times, every 5 min, the intensity of agitation was scored 0 to 3."}, "[9]": {"system": "d-Amphetamine-induced hyperlocomotion in rats", "test": "d-Amphetamine-induced hyperlocomotion in rats: potentiation of the effect of MP-10", "assay_type": "in vivo, rat", "details": "SC, d-amphetamine (1.25 mg/kg, s.c.) + MP-10 (2.5 mg/kg, s.c.)"}, "[10]": {"system": "cAMP and cGMP levels in the rat brain (hippocampus and striatum)", "details": "in vivo"}, "[11]": {"biological_target": "Rat recombinant PDE10A (rPDE10A2) (Rattus norvegicus (Rat), UniProt Q9QYJ6)", "sequence (Q9QYJ6 whole entry)": "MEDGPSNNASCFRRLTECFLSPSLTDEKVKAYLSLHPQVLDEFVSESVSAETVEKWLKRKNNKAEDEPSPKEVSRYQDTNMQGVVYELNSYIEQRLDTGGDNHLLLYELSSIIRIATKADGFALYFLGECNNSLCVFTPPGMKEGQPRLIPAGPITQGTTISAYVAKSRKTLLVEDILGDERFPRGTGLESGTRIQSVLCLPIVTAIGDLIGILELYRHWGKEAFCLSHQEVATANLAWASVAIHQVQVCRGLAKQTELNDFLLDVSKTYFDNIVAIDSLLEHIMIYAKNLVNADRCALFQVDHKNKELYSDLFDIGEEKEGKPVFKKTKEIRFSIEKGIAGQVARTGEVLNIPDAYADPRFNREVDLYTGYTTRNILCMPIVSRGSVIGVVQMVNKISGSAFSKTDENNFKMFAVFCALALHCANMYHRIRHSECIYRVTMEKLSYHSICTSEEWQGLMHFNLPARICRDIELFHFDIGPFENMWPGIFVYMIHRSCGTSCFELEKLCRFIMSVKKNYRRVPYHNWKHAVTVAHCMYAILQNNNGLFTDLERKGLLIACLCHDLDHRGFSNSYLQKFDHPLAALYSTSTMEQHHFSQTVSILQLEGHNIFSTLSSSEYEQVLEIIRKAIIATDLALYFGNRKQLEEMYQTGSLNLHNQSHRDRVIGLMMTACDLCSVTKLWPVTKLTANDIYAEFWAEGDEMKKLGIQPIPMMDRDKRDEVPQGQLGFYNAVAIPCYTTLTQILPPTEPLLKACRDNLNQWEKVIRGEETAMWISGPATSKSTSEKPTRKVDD", "test": "In vitro assay PDE10A (SPA, 3H-cAMP)", "assay_type": "biochemical"}, "PDE2 [12]": {"biological_target": "T1, PDE2", "details": "rat brain sections"}, "[13]": {"biological_target": "Human recombinant PDE2A (hPDE2A) (Homo sapiens (Human), UniProt O00408)", "sequence (O00408 whole entry)": "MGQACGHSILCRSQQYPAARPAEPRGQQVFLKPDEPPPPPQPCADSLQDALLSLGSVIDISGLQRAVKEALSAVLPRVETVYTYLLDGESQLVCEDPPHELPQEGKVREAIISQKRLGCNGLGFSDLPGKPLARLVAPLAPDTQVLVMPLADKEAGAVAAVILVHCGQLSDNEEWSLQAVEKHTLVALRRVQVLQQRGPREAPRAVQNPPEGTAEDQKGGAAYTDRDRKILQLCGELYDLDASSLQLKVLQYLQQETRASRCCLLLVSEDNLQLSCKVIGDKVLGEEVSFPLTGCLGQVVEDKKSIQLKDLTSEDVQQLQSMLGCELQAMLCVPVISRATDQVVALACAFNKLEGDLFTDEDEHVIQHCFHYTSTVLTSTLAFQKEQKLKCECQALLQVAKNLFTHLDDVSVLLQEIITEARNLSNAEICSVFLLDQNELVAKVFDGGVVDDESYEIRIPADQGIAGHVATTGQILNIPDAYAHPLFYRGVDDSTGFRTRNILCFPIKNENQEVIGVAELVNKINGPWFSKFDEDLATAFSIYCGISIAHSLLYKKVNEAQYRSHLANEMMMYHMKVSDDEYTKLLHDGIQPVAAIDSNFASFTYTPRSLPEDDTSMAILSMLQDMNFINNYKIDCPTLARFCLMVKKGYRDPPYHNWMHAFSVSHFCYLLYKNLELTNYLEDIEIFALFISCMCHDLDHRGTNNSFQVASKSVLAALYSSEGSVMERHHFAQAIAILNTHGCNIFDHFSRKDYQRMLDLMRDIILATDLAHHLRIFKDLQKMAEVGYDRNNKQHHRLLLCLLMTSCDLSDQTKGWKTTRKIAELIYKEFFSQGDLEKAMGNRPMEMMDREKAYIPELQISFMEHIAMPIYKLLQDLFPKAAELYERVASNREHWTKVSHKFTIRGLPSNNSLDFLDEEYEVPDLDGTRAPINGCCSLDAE", "test": "In vitro assay PDE2A (SPA, 3H-cGMP)", "assay_type": "biochemical", "details": "-log IC50 expressed in mol/L"}}, "note": "Structures can show the parent of a compound that is named as a salt. Where two headings read alike, the source gives them in different places.", "data": [{"compound": "Cn1cc(-c2ccncc2)c(-c2ccc(OCc3ccc4ccccc4n3)cc2)n1", "note": "[MP-10, 2-{[4-(1-methyl-4-pyridin-4-yl-1H-pyrazol-3-yl)phenoxy]methyl}quinoline]", "values": [{"measurement": "in vivo [3H]B-1a binding expressed as % of binding in vehicle-treated rats, AVG", "setting": "PDE2 [1]; dose MP-10 0.63 mpk", "result": 80, "unit": "%"}, {"measurement": "in vivo [3H]B-1a binding expressed as % of binding in vehicle-treated rats, AVG", "setting": "PDE2 [1]; dose MP-10 2.5 mpk", "result": 302, "unit": "%"}, {"measurement": "in vivo [3H]B-1a binding expressed as % of binding in vehicle-treated rats, AVG", "setting": "PDE2 [1]; dose MP-10 10 mpk", "result": 501, "unit": "%"}, {"measurement": "in vivo [3H]B-1a binding expressed as % of binding in vehicle-treated rats, AVG", "setting": "PDE2 [1]; dose MP-10 40 mpk", "result": 739, "unit": "%"}, {"measurement": "mean nmol cGMP/ml", "setting": "[2]; 2.5 mpk", "result": 8.7, "unit": "nmol cGMP/ml"}, {"measurement": "fold increase", "setting": "[2]; cGMP vs vehicle, 2.5 mpk", "result": 1.4}, {"measurement": "incr vs contr (pmol cGMP/ml) (measured)", "setting": "[2]; 2.5 mpk", "result": 2.4, "unit": "pmol cGMP/ml"}, {"measurement": "effect on apomorphine-induced agitation (median score)", "setting": "[3]; MP-10 -1 h, s.c., with B-1a or solvent", "result": "dose-dependently inhibited agitation"}, {"measurement": "median agitation scores <10", "setting": "[3]; MP-10 up to 10 mg/kg, co-administered B-1a <=0.63 mg/kg", "result": "not obtained"}, {"measurement": "ED50", "setting": "[4]; Rattus norvegicus, sc, read-out: ED50 for reducing d-amphetamine-induced hyperlocomotion to a distance <1000 cm, MP-10 (-1 h, s.c.) alone, historical data", "result": "> 40", "unit": "mg/kg"}, {"measurement": "effect on d-amphetamine-induced hyperlocomotion, alone", "setting": "[4]; up to 40 mg/kg s.c.", "result": "almost never achieves values <2500 cm"}]}, {"compound": "CCCCOc1cncc(-c2nnc3c(C)nc4ccc(CN5CCOCC5)cc4n23)c1", "note": "[Compound B-1a, 1-(5-Butoxypyridin-3-yl)-4-methyl-8-(morpholin-4-ylmethyl) [1,2,4]triazolo[4,3-a]quinoxaline hydrochloride]", "values": [{"measurement": "effect on d-amphetamine-induced hyperlocomotion combined with the solvent of the PDE10-is", "setting": "[5]", "result": "ineffective against the d-amphetamine-induced hyperlocomotion"}, {"measurement": "effect on d-amphetamine-induced hyperlocomotion combined with Compound A or Compound B", "setting": "[5]; PDE10-i 2.5 mg/kg s.c.", "result": "potentiated the effect of both PDE10-is"}, {"measurement": "effect on apomorphine-induced agitation combined with Compound A or Compound B", "setting": "[6]; B-1a 5.0 mg/kg s.c., PDE10-i 2.5 mg/kg s.c.", "result": "significantly potentiated the effect of both PDE10-is"}, {"measurement": "effect on apomorphine-induced agitation combined with the solvent of the PDE10-is", "setting": "[6]; B-1a 0.63-5.0 mg/kg s.c.", "result": "did not affect apomorphine-induced agitation"}, {"measurement": "Dose at max effect", "setting": "[7]", "result": 40}, {"measurement": "Max effect (lowest median cumulative agitation score)", "setting": "[7]", "result": 23}, {"measurement": "LAD (lowest active dose)", "setting": "[7]", "result": ">40"}, {"measurement": "effect against apomorphine-induced agitation, administered alone", "setting": "[7]; without MP-10, at the tested doses", "result": "ineffective against apomorphine"}, {"measurement": "incr vs contr (pmol cGMP/ml) (measured)", "setting": "[2]; 2.5 mpk", "result": 5.4, "unit": "pmol cGMP/ml"}, {"measurement": "incr vs contr (pmol cGMP/ml) (measured)", "setting": "[2]; 10 mpk", "result": 9.7, "unit": "pmol cGMP/ml"}, {"measurement": "Inh. of agitation < 10 Effect (cumulative agitation score)", "setting": "[8]; Time 60, dose 0.63", "result": 18}, {"measurement": "Inh. of agitation < 10 Effect (cumulative agitation score)", "setting": "[8]; Time 60, dose 1.25", "result": 10}, {"measurement": "Inh. of agitation < 10 Effect (cumulative agitation score)", "setting": "[8]; Time 60, dose 2.5", "result": 11}, {"measurement": "Inh. of agitation < 10 Effect (cumulative agitation score)", "setting": "[8]; Time 60, dose 5", "result": 6}, {"measurement": "Inh. of agitation < 10 Effect (cumulative agitation score)", "setting": "[8]; Time 60, dose 10", "result": 7}, {"measurement": "Inh. of agitation < 10 Effect (cumulative agitation score)", "setting": "[8]; Time 60, dose 40", "result": 1}, {"measurement": "effect against d-amphetamine-induced hyperlocomotion, alone", "setting": "[4]; 40 mg/kg s.c., 1 h", "result": "ineffective per se"}, {"measurement": "Distance Total <2500 cm Effect", "setting": "[9]; Time -60, dose 0.31", "result": 3066, "unit": "cm"}, {"measurement": "Distance Total <2500 cm Effect", "setting": "[9]; Time -60, dose 0.63", "result": 2525, "unit": "cm"}, {"measurement": "Distance Total <2500 cm Effect", "setting": "[9]; Time -60, dose 1.25", "result": 1664, "unit": "cm"}, {"measurement": "Distance Total <2500 cm Effect", "setting": "[9]; Time -60, dose 2.5", "result": 1659, "unit": "cm"}, {"measurement": "Distance Total <2500 cm Effect", "setting": "[9]; Time -60, dose 5", "result": 1281, "unit": "cm"}, {"measurement": "Distance Total <2500 cm Effect", "setting": "[9]; Time -60, dose 10", "result": 727.6, "unit": "cm"}]}, {"compound": "CCCCOc1cncc(-c2nnc3c(C)nc4ccc(CN(C)C)cc4n23)c1", "note": "[Compound B-27]", "values": [{"measurement": "Hippocampus cAMP (% of Control)", "setting": "[10]", "result": "122 ± 10 % of Control"}, {"measurement": "Hippocampus cGMP (% of Control)", "setting": "[10]", "result": "104 ± 32 % of Control"}, {"measurement": "Striatum cAMP (% of Control)", "setting": "[10]", "result": "89 ± 6 % of Control"}, {"measurement": "Striatum cGMP (% of Control)", "setting": "[10]", "result": "128 ± 26 % of Control"}, {"measurement": "PIC50 PDE10", "setting": "[11]", "result": 5.03}, {"measurement": "Inh. of agitation < 10 Effect (cumulative agitation score)", "setting": "[8]; Time 60, dose 10", "result": 14}, {"measurement": "Distance Total <2500 cm Effect", "setting": "[9]; Time -60, dose 2.5", "result": 4145, "unit": "cm"}, {"measurement": "Distance Total <2500 cm Effect", "setting": "[9]; Time -60, dose 10", "result": 2500, "unit": "cm"}]}, {"compound": "CCCCOc1ccc(Cl)c(-c2nnc3c(C)nc4ccc(CN(C)C)cc4n23)c1", "note": "[Compound B-11]", "values": [{"measurement": "Hippocampus cAMP (% of Control)", "setting": "[10]", "result": "117 ± 20 % of Control"}, {"measurement": "Hippocampus cGMP (% of Control)", "setting": "[10]", "result": "150 ± 42 % of Control"}, {"measurement": "Striatum cAMP (% of Control)", "setting": "[10]", "result": "88 ± 12 % of Control"}, {"measurement": "Striatum cGMP (% of Control)", "setting": "[10]", "result": "121 ± 20 % of Control"}, {"measurement": "PIC50 PDE10", "setting": "[11]", "result": 5.67}, {"measurement": "Inh. of agitation < 10 Effect (cumulative agitation score)", "setting": "[8]; Time 60, dose 2.5", "result": 17}, {"measurement": "Inh. of agitation < 10 Effect (cumulative agitation score)", "setting": "[8]; Time 60, dose 10", "result": 7}, {"measurement": "Distance Total <2500 cm Effect", "setting": "[9]; Time -60, dose 2.5", "result": 3494, "unit": "cm"}, {"measurement": "Distance Total <2500 cm Effect", "setting": "[9]; Time -60, dose 10", "result": 1960, "unit": "cm"}]}, {"compound": "O=P1(O)OCC2O[C@@H](n3cnc4ccccc43)[C@H](O)C2O1", "note": "(stereo partly shown) [cBIMP]", "values": [{"measurement": "effect on specific binding of [3H]B-1a", "setting": "PDE2 [12]", "result": "increase the specific binding"}]}, {"compound": "COC(=O)[C@@H](N)CCCNC(=N)N[N+](=O)[O-]", "note": "[L-NAME]", "values": [{"measurement": "effect of pre-treatment on potentiation of [3H]B-1a binding by MP-10", "setting": "PDE2 [1]; pre-treatment", "result": "prevented the potentiation"}]}, {"compound": "Cc1nc2ccc(CN3CCOCC3)cc2n2c(-c3ccccc3Cl)nnc12", "note": "[Compound B-3, 1-(2-Chlorophenyl)-4-methyl-8-(morpholin-4-ylmethyl)[1,2,4]triazolo[4,3-a]-quinoxaline]", "values": [{"measurement": "Dose at max effect", "setting": "[7]", "result": 5}, {"measurement": "Max effect (lowest median cumulative agitation score)", "setting": "[7]", "result": 14}, {"measurement": "LAD (lowest active dose)", "setting": "[7]", "result": 5}, {"measurement": "PIC50 PDE10", "setting": "[11]; -log IC50 expressed in mol/L", "result": 7.47}, {"measurement": "pIC50 PDE2", "setting": "[13]", "result": 8.64}]}]}
